{
  "source": "patent US4900672A",
  "about": "“Method for preservation of nitrile hydration activity” (Nitto Kagaku Kogyo Kabushiki Kaisha, priority 1986, dated 1990)",
  "key": {"nitrile hydratase [1]": {"molecular_target": "T1, nitrile hydratase (Pseudomonas chlororaphis, UniProt P27763+P27764)", "T1 sequence (P27764 1-200)": "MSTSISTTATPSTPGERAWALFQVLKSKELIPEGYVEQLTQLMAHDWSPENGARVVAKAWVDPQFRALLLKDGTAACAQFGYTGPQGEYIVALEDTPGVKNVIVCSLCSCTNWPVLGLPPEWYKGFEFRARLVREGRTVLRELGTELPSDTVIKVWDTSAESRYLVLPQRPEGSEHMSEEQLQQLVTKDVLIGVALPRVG", "T1 sequence (P27763 1-220)": "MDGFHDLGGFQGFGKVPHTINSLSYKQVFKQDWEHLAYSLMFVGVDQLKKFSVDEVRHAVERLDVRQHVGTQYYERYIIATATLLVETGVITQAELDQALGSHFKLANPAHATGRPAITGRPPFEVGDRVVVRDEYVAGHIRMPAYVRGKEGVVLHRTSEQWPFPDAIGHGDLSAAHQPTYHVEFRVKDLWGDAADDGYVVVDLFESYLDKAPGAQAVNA", "experiment": "Preservation of nitrile hydration activity of polyacrylamide gel-immobilized cells left standing", "assay_type": "cell-based, Pseudomonas chlororaphis B23 (FERM BP-187)", "details": "Table 7", "method": "40 ml of washed cells (water content 75%) prepared as in Example 1, 4.5 g of acrylamide, 0.5 g of N,N'-methylenebisacrylamide, and 40 ml of M/20 phosphate buffer (containing 10 g/l of ammonium isobutyrate, pH 6.0) were mixed to form a homogeneous suspension. To this suspension were added 5 ml of a 5% aqueous solution of dimethylaminopropionitrile and 10 ml of a 1% aqueous solution of potassium persulfate, and the mixture was maintained at 10° C. for 30 minutes to cause polymerization. A mass of cell-containing gel obtained was crushed into small particles, which were thoroughly washed with M/20 phosphate buffer containing 5 g/l of ammonium isobutyrate, pH 7.0, whereby approximately 90 g of immobilized cells were obtained.\nThe washed, immobilized cells thus obtained were placed in the same buffer containing 5 g/l of isobutyric acid and left standing at 0° C. for 5 days. […]\nThe nitrile hydration activity levels of the gel samples were measured as follows before and after the respective immobilized cells were left standing.\n1 g of immobilized gel was mixed with 5 g of acrylonitrile and 97 ml of M/20 phosphate buffer (pH 7.7), and the mixture was subjected to reaction at 0° C. for 20 minutes with stirring. The quantities of acrylamide in the respective reaction solutions were determined by gas chromatography."}, "nitrile hydratase [2]": {"molecular_target": "T1, nitrile hydratase", "experiment": "Preservation of nitrile hydration activity of enzyme immobilized on DEAE-Cellulofine AM left standing", "assay_type": "biochemical, Pseudomonas chlororaphis B23 (FERM BP-187)", "details": "Table 8", "method": "25 ml each of a cell extract containing ammonium isobutyrate and a control cell extract containing no ammonium isobutyrate prepared as in Example 95 and comparison Example 11 were mixed with 15 g each of DEAE-Cellulofine AM (supplied by Seikagaku Kogyo Co., Ltd., Japan) equilibrated with M/20 phosphate buffer (pH 7.7). The mixture was stirred at 0° C. for 90 minutes to immobilize the enzymes.\nThe results are presented in Table 8 in which the protein levels in the immobilized enzymes were determined in accordance with the procedure of Lowry et al."}, "nitrile hydratase [3]": {"molecular_target": "T1, nitrile hydratase", "experiment": "Preservation of nitrile hydration activity of cell extract (crude enzyme solution) left standing", "assay_type": "biochemical, Pseudomonas chlororaphis B23 (FERM BP-187)", "details": "Table 6", "method": "The resultant cell suspension was pressed in a French press (fabricated by Ohtake Seisakusho, Japan) to crush cells under a pressure of 1,000 to 1,500 kg G and then subjected to centrifugation (12,000 rpm, 30 minutes) to remove uncrushed cells and insolubles such as cell walls, whereby a cell extract, i.e. a crude enzyme solution, was obtained.\nFor comparison purposes, a similar cell suspension (3.2×10^3 U/ml) which contained no ammonium isobutyrate was prepared and subjected to a French press treatment and centrifugation under similar conditions, whereby a control cell extract was obtained."}},
  "data": [
    {"compound": "CC(C)C(=O)O.N", "note": "[Ammonium Isobutyrate, ammonium isobutyrate]", "values": [
      {"measurement": "Quant. of AA produced (%) after cells were left standing", "setting": "nitrile hydratase [1]; immobilized cells left standing at 0° C. for 5 days in buffer with 5 g/l stabilizer, control without: 0.52", "result": 0.93, "unit": "%"},
      {"measurement": "Quant. of AA produced (%) before cells were left standing", "setting": "nitrile hydratase [1]; immobilized cells, 1 g gel + 5 g acrylonitrile, 0° C., 20 minutes, control without: 0.88", "result": 1.02, "unit": "%"},
      {"measurement": "Activity Before Being Left Standing", "setting": "nitrile hydratase [2]; enzyme immobilized on DEAE-Cellulofine AM, control without: 4.6", "result": 19.4},
      {"measurement": "Activity After Being Left Standing", "setting": "nitrile hydratase [2]; immobilized enzyme, 3 days ice-cooled, control without: 1.7", "result": 18.4},
      {"measurement": "% Residual Activity", "setting": "nitrile hydratase [2]; immobilized enzyme, 3 days ice-cooled, control without: 37", "result": 95, "unit": "%"},
      {"measurement": "Activity Before Being Left Standing", "setting": "nitrile hydratase [3]; cell extract from suspension mixed 1:1 with buffer (pH 6.5) containing 10 g/l ammonium isobutyrate, control without: 2.7 × 10^3", "result": "2.9 × 10^3 U/ml"},
      {"measurement": "Activity After Being Left Standing", "setting": "nitrile hydratase [3]; cell extract, 3 days ice-cooled, control without: 1.0 × 10^3", "result": "2.8 × 10^3 U/ml"},
      {"measurement": "% Residual Activity", "setting": "nitrile hydratase [3]; cell extract, 3 days ice-cooled, control without: 38", "result": 94, "unit": "%"}
    ]}
  ]
}
